Tests used:
human mGluR5 receptor = biological target: T1, human mGluR5 receptor (Homo sapiens, UniProt P41594); assay: intracellular Ca2+ mobilization assay, potentiation of glutamate EC20 response (FDSS); assay type: cell-based; settings: for Emax: HEK293, maximum % effect in concentration-response curve, relative to glutamate ECMax-treated wells, HEK-293 human mGluR5; for EC50: human mGluR5 stably expressed in HEK-293 cells, Fluo-4 AM, increase in glutamate EC20 (~0.2 μM) response
T1 construct: expressed in transfected cells
From the text: The compounds provided in the present invention are positive allosteric modulators of mGluR5. These compounds appear to potentiate glutamate responses by binding to an allosteric site other than the glutamate binding site. The response of mGluR5 to a concentration of glutamate is increased when compounds of Formula (I) are present. Compounds of Formula (I) are expected to have their effect substantially at mGluR5 by virtue of their ability to enhance the function of the receptor. The behaviour of positive allosteric modulators tested at mGluR5 using the intracellular Ca^2+ mobilization binding assay method described below and which is suitable for the identification of such compounds.
In brief, the human mGluR5 receptor was stably expressed in HEK-293 cells and grown at a density of 40,000 cells/well in PDL-coated 384-well plates. Cells were preloaded with the calcium-sensing dye Fluo-4 AM and various concentrations of test compound were added in the absence of exogenous glutamate to test for direct agonist activity. Shortly (2.5 min) thereafter, an EC20 equivalent of glutamate (˜0.2 μM) was added. The fluorescence signal was monitored using a Hamamatsu Functional Drug Screening System (FDSS) fluorescence plate reader following the addition of compound alone (direct agonist response) and then the further addition of an EC20 of glutamate (positive allosteric modulation response). The pEC50 was defined as the negative log of the test compound concentration which produced an increase in the glutamate EC20-mediated response that was 50% of maximum. Individual amplitudes were expressed as % effect by multiplying each amplitude by 100 and then dividing the product by the mean of the amplitudes derived from the glutamate ECMax-treated wells. Emax values reported in this application are defined as the maximum % effect obtained in a concentration-response curve.

T1 sequence (P41594 21-1212): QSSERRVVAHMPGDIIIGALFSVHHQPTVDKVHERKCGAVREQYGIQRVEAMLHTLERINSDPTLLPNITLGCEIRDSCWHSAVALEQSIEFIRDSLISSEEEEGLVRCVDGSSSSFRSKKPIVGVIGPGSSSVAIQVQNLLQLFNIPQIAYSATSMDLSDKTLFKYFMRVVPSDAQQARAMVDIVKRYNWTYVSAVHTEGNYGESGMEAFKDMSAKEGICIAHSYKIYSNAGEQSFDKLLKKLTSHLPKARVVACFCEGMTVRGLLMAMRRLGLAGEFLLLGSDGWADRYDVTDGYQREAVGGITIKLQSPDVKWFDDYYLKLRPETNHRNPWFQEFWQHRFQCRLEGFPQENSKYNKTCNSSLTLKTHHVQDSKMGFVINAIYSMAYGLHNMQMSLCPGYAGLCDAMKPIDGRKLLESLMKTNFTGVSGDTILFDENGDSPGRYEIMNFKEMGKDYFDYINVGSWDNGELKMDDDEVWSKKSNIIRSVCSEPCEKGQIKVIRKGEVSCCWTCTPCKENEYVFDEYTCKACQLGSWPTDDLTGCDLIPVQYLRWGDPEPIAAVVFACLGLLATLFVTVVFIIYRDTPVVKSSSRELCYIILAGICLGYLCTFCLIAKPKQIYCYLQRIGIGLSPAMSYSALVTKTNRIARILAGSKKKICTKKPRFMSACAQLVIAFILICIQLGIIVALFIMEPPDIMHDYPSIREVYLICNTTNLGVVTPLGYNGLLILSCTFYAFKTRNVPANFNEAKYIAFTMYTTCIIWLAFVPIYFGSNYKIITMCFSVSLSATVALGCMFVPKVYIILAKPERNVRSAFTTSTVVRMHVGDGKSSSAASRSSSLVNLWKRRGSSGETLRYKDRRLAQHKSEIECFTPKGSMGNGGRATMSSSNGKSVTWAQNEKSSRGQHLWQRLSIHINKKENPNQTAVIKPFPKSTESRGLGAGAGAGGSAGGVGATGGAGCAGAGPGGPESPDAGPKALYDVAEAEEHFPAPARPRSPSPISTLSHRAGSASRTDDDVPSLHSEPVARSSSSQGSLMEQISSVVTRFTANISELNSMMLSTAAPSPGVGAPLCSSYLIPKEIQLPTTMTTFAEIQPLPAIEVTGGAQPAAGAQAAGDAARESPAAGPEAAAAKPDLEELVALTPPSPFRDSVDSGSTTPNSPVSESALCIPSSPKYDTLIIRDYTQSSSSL

Structure (SMILES) | Emax (human mGluR5 receptor) [%] | EC50 (human mGluR5 receptor) [nM] | melting point [°C]
O=C1CCCc2nc(C#Cc3ccccc3)sc21 [Compound 1, 5,6-dihydro-2-(phenylethynyl)-7(4H)-benzothiazolone] | 100 | 51.3 | 117.1 to 119.9
COCCN1CCc2nc(C#Cc3ccccc3)sc2C1=O [Compound 11, 6,7-dihydro-5-(2-methoxyethyl)-2-(phenylethynyl)-thiazolo[5,4-c]pyridin-4 (5H)-one] | 64 | 275 | 144.5 to 148.2
O=C1CCCc2nc(C#Cc3cccnc3)sc21 [Compound 10, 5,6-dihydro-2-(3-pyridinylethynyl)-7(4H)-benzothiazolone] | 92 | 1510 | 109.5 to 112
O=C1c2sc(NCc3ccccc3)nc2CCN1c1ccc(F)cc1 [Compound 22] |  |  | 221.3
O=C1CCCc2nc(C#Cc3cncc(F)c3)sc21 [Compound 2, 2-[(5-fluoro-3-pyridinyl)ethynyl]-5,6-dihydro-7(4H)-benzothiazolone] | 83 | 4270 | 139.2 to 141.9
O=C1c2sc(C#Cc3ccccc3)nc2CCN1Cc1ccccc1 [Compound 12, 6,7-dihydro-2-(phenylethynyl)-5-(phenylmethyl)-thiazolo[5,4-c]pyridin-4(5H)-one] | 90 | 468 | 141.5 to 152.5
O=C1NCCCc2nc(-c3ccc(N4CCCCC4)nc3)sc21 [Compound 8] | 11 | 5010 | 260.3 to 264
O=C1c2sc(OCc3cccnc3)nc2CCN1c1ccc(F)cc1F [Compound 23] |  |  | 106 to 110
O=C1c2sc(OCc3ccccn3)nc2CCN1c1ccc(F)cc1F [Compound 24] |  |  | 98.1 to 100.1
CN1CCOc2cc(-c3nc4c(s3)C(=O)CCC4)ccc21 [Compound 9, 2-(4-methyl-3,4-dihydro-2H-1,4-benzoxazin-7-yl)-5,6-dihydro-1,3-benzothiazol-7(4H)-one] | 77 | 6310 | 218.1 to 220.8
O=C1NCCc2nc(C#Cc3ccccc3)sc21 [Compound 3, 6,7-dihydro-2-(phenylethynyl)-thiazolo[5,4-c]pyridin-4(5H)-one] | 78 | 219 | 232.1 to 235.1
CN1CCc2nc(C#Cc3ccccc3)sc2C1=O [Compound 4, 6,7-dihydro-5-methyl-2-(phenylethynyl)-thiazolo[5,4-c]pyridin-4(5H)-one] | 79 | 69.2 | 146.1 to 147.2
O=C1c2sc(OCc3ccncc3)nc2CCN1c1ccc(F)cc1 [Compound 21] |  |  | 169.1 to 170.9
O=C1CCCc2nc(CCc3ccccc3)sc21 [Compound 6, 5,6-dihydro-2-(2-phenylethyl)-7(4H)-benzothiazolone] | 51 | 18600 | 
